Test results: patent US20060094737A1, “Novel uracil derivatives and medicinal use thereof” (Sumitomo Pharmaceuticals CO. Ltd., priority 2002, published 2006)

How the values were obtained:
[1] = tested on: itch-related behavior induced by substance P; experiment: Inhibitory effect on the itch-related behavior of mice induced by substance P; type: in vivo, BALB/c strain male mice; settings: frequency counted for 60 minutes, vs 0.5% CMC-Na group
Procedure: It has been reported that in the lesion part of a patient with atopic dermatitis, there are observed an increase in nerve fiber containing substance P (SP), a nerve peptide (Tobin D et al., J Allergy Clin immunol, 90, 613-22(1992)) and an increase in reactivity with SP (Gianetti A et al. Br J Dermatol, 121, 681-8(1989)). On the other hand, it has been reported that when SP is administered to the cervicodorsal part of a mouse, itch-related behavior is induced (Kuraishi Y et al. Eur J Pharmacol, 275, 229-33(1995)) and is suppressed by a certain antiallergic agent (Inagaki N et al. Eur J Pharmacol, 400, 73-9(2000)). Therefore, in order to verify the itch-inhibiting effect of the uracil derivatives of the present invention, the itch-inhibiting effect was evaluated by employing the effect of the uracil derivatives on itch-related behavior induced by SP, as an indication. Each of BALB/c strain male mice was previously transferred to a cage for observation and allowed to acclimate to an observation environment, and then SP was subcutaneously administered (200 μg/mouse) to the cervicodorsal part of the mouse. After the administration, the mouse was returned to the cage for observation and the frequency of its itch-related behavior was measured for 60 minutes after the return. Each test drug was suspended in a 0.5% CMC-Na solution and orally administered in a dose of 10 mg/kg 30 minutes before the administration of SP. For evaluating the itch-inhibiting effect, the inhibition rate of the test drug was calculated as an indication as follows by comparison with a group treated with a 0.5% CMC-Na solution. As a comparative example, an antiallergic agent Oxatomide, which is considered as an agent having itch-inhibiting effect, was administered in a dose of 3 times that of the test drug (30 mg/kg). [formula]

[2] = tested on: dermatitis induced by picryl chloride (type IV allergic inflammation); experiment: Inhibitory effect on dermatitis induced by picryl chloride, test compound applied on the ear; type: in vivo, ICR strain male mice; settings: 0.04 ml of 0.25% (w/v) test compound/acetone on the ear; ear thickness 24 hours after the causing; relative to 2.5% (w/v) comparative compound 1 (10 times the amount)
Procedure: In order to verify the inflammation-inhibiting effect of the uracil derivative of the present invention, its effect on dermatitis induced by picryl chloride, a model of typical type IV allergic inflammation was evaluated by adopting the method of Asherson et al. (Immunology, 15, 405 (1968)). On the abdominal skin of each of ICR strain male mice was applied 0.1 ml of a 7% (w/v) picryl chloride/acetone solution to induce sensitization. On the seventh days after the sensitization, 0.02 ml of a 1% (w/v) picryl chloride/acetone solution was applied on the ear of each mouse to cause an allergic reaction. […] Twenty-four hours after the causing, the thickness of the ear was measured and the dermatitis-inhibiting effect of the test compound was evaluated by employing the difference between the thickness of the ear 24 hours after the causing and that before the causing as an indication. […]
From the difference of the ear thickness before and after the causing of the allergic reaction in the case of each group, the relative degree of efficacy of the test compound in the inhibition of ear enlargement was calculated according to the following equation by comparison with a group treated with the comparative compound in an amount of 10 times that of the test compound: [formula]

[3] = tested on: dermatitis induced by picryl chloride (type IV allergic inflammation); experiment: Inhibitory effect on dermatitis induced by picryl chloride, oral administration; type: in vivo, ICR strain male mice; settings: oral 10 mg/kg in 0.5% CMC-Na one hour before the causing; relative to comparative compound 1 oral 100 mg/kg
Procedure: The effect on the animal model in Evaluation Example 1 was verified by oral administration. ICR strain male mice were sensitized in the same manner as in Evaluation Example 1, and on the seventh days after the sensitization, 0.02 ml of a 1% (w/v) picryl chloride/acetone solution was applied on the ear of each mouse to cause an allergic reaction. Each test compound was suspended in a 0.5% CMC-Na solution and orally administered in a dose of 10 mg/kg one hour before the causing of the allergic reaction. As a comparative example, the above-mentioned comparative compound 1 disclosed in Japanese Patent No. 3093170 was orally administered in a dose of 100 mg/kg to make a comparison.

[4] = oral 10 mg/kg 30 minutes before SP (200 μg/mouse s.c.)

Row | Compound | Degree of efficacy (relative degree of efficacy in the inhibition of ear enlargement) [3] | other results
1 | Cc1c(O)c(C)c(C(=O)Nc2c(N)n(-c3cccc4ccccc34)c(=O)n(C)c2=O)c2c1CCC(C)(C)O2 [Example 2, 6-amino-5-(6-hydroxy-2,2,5,7-tetramethyl-chroman-8-carboxamide)-3-methyl-1-(1-naphthyl)uracil] | – | Inhibition rate (%) of itch-related behavior [1, 4]: 71%
2 | Cc1cc(OCC(=O)Nc2c(N)n(-c3cccc4ccccc34)c(=O)n(C)c2=O)c(C)c(C)c1O [Example 4, 6-amino-5-[(4-hydroxy-2,3,5-trimethyl)phenoxy]acetamide-3-methyl-1-(1-naphthyl)uracil] | – | Degree of efficacy (relative degree of efficacy in the inhibition of ear enlargement) [2]: 0.9
3 | Cc1cc(OCC(=O)Nc2c(N)n(-c3cccc4ccccc34)c(=O)n(C)c2=O)c(C)c(C)c1N [Example 5, 6-amino-5-[(4-amino-2,3,5-trimethyl)phenoxy]acetamide-3-methyl-1-(1-naphthyl)uracil] | – | Degree of efficacy (relative degree of efficacy in the inhibition of ear enlargement) [2]: 1.1; Inhibition rate (%) of itch-related behavior [1, 4]: 53%
4 | CCn1c(=O)c(NC(=O)c2c(C)c(O)c(C)c3c2OC(C)(C)CC3)c(N)n(-c2cccnc2OC)c1=O [Example 10, 6-amino-3-ethyl-5-(6-hydroxy-2,2,5,7-tetramethylchroman-8-carboxamide)-1-(2-methoxypyridin-3-yl)uracil] | 1.6 | –
5 | CCCCn1c(=O)c(NC(=O)c2c(C)c(O)c(C)c3c2OC(C)(C)C3)c(N)n(-c2cccc3ccccc23)c1=O [Example 14, 6-amino-3-butyl-5-(6-hydroxy-2,2,5,7-tetramethyl-3-oxaindan-4-carboxamide)-1-(1-naphthyl)uracil] | 1.0 | –
6 | CCn1c(=O)c(NC(=O)c2c(C)c(O)c(C)c3c2OC(C)(C)C3)c(N)n(-c2cccc3c2CCC3)c1=O [Example 20, 6-amino-3-ethyl-5-(6-hydroxy-2,2,5,7-tetramethyl-3-oxaindan-4-carboxamide)-1-(4-indanyl)uracil] | 1.2 | –
7 | Cc1c(O)c(C)c(C(=O)Nc2c(N)n(-c3cccc4c3CCCC4)c(=O)n(C)c2=O)c2c1CC(C)(C)O2 [Example 22, 6-amino-3-methyl-5-(6-hydroxy-2,2,5,7-tetramethyl-3-oxaindan-4-carboxamide)-1-(5,6,7,8-tetrahydro-1-naphthyl)uracil] | 1.3 | –
8 | Cc1cccc(-n2c(N)c(NC(=O)COc3cc(C)c(N)c(C)c3C)c(=O)n(C)c2=O)c1C [Example 29, 6-amino-5-[(4-amino-2,3,5-trimethyl)phenoxy]acetamide-3-methyl-1-(2,3-dimethylphenyl)uracil] | 1.4 | –
9 | CNc1c(NC(=O)COc2cc(C)c(N)c(C)c2C)c(=O)n(C)c(=O)n1-c1cccc(C)c1C [Example 30, 6-methylamino-5-[(4-amino-2,3,5-trimethyl)phenoxy]acetamide-3-methyl-1-(2,3-dimethylphenyl)uracil] | 1.6 | –
10 | O=c1[nH]c2ccccc2n1CCCN1CCN(C(c2ccccc2)c2ccccc2)CC1 [Oxatomide, reference compound] | – | Inhibition rate (%) of itch-related behavior ([1]; oral 30 mg/kg 30 minutes before SP (200 μg/mouse s.c.)): 39%
